Reference: publication PMC11187126, “Structure and dynamics of the pyroglutamylated RF-amide peptide QRFP receptor GPR103” (Nature Communications, 2024)
Where two headings read alike, the source gives them in different places. No end group written: not given here.

Target: T1, GPR103 V129^3.36A (Homo sapiens, UniProt Q96P65, V129A)
T1 construct: we used human full-length QRFPR-encoding plasmids; expressed in transfected cells; host or cells: HEK293 cells, pCAGGS vector
T1 sequence (Q96P65 1-431 V129A): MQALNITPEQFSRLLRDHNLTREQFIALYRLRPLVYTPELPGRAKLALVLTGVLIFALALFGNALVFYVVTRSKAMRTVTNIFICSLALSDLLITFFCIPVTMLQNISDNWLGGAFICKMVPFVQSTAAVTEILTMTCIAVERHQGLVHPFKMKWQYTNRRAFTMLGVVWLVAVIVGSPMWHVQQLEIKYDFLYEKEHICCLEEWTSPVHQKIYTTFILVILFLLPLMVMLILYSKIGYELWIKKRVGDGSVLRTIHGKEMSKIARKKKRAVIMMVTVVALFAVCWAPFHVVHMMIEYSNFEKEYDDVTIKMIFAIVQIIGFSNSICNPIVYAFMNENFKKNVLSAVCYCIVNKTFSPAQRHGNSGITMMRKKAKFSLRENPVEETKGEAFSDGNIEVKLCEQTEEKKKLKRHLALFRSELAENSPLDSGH
Test: TGFα shedding assay; Exp. level WT (1:20)
Assay type: cell-based
Method: For the TGFα shedding assay and the flow cytometry analysis, we used human full-length QRFPR-encoding plasmids. Specifically, GPR103 was N-terminally modified with an HA signal sequence followed by a FLAG epitope and then a flexible linker ([…]; the FLAG epitope is underlined) and inserted into the pCAGGS vector. Plasmid encoding GPR103 mutants were generated using Quickchange Site-Directed Mutagensis kit (Agilent).
The TGFα shedding assay was performed as described previously with minor modifications. Plasmid transfection was performed in a 6-well plate with a mixture of 500 ng (per well in a 6-well plate) AP-TGFα-encoding plasmid and 200 ng GPR103-encoding plasmid. After 1-day culture, the transfected cells were harvested by trypsinization, pelleted by centrifugation at 190 × g for 5 min, and washed once with 5 mM HEPES (pH 7.4)-containing Hank’s Balanced Salt Solution (HBSS). After centrifugation, the cells were resuspended in 8 mL of the HEPES-containing HBSS. The cell suspension was seeded in a 96-well culture plate (cell plate) at a volume of 90 μL (per well hereafter) and incubated in a 37 °C incubator with 5% CO2 for 30 min. […] After spinning the cell plates at 190 × g for 2 min, 80 μL of conditioned media was transferred to an empty 96-well plate (conditioned media (CM) plate). Then, 80 μL of AP reaction solution (10 mM p-nitrophenylphosphate (p-NPP), 120 mM Tris-HCl (pH 9.5), 40 mM NaCl, and 10 mM MgCl2) was dispensed into the cell plates and the CM plates. Absorbance at 405 nm of the plates was measured using a microplate reader (SpectraMax 340 PC384, Molecular Devices) before and after 1-h incubation at room temperature. Ligand-induced AP-TGFα release was calculated by subtracting spontaneous AP-TGFα release signal from ligand-induced AP-TGFα release signal. The AP-TGFα release signals were fitted to a four-parameter sigmoidal concentration–response curve, using the Prism 10 software (GraphPad Prism). For each replicate experiment, the pEC50 parameter (negative logarithmic values of EC50 values) of the individual GPR103 mutants were normalized to that of the wild-type GPR103 performed in parallel, and resulting ∆pEC50 values were used to denote ligand response activity of the mutants. […]
Exp. le vel: WT (1:5 0)Exp. le vel: WT (1:5 0)Exp. le vel: WT (1:5 0)Exp. le vel: WT (1:2 0)Exp. le vel: WT (1:2 0)Exp. le vel: WT (1:1 0) […]
L1 4N - t e r mA F2 5N - t e r mA I 2 6N - t e r mA Y 2 9N - t e r mA C 9 82 .5 7A T10 22 .6 1A Exp . l eve l: WT (1 :5)Exp . l evel : >WT (1 :1)Exp. le vel: WT (1:2 0)Exp. le vel: WT (1:2 0)Exp. le vel: WT (1:5 0)Exp . l eve l: WT (1 :1) […]
Exp. le vel: WT (1:1 0)Exp. le vel: WT (1:2 0) C 1 1 83 .2 5AExp. le vel: WT (1:5 0)Exp. le vel: WT (1:5 0)Exp. le vel: WT (1:2 0)Exp . l eve l: WT (1 :5) […]
Exp. le vel: WT (1:5 0)Exp. le vel: WT (1:1 0)Exp. le vel: WT (1:5 0) E203ECL2AExp . l evel : >WT (1 :1)Exp. le vel: WT (1:5 0)Exp. le vel: WT (1:5 0) […]
Exp . l eve l: WT (1 :1) F28Exp. le vel: WT (1:5 0) C 2 8 56 .4 7AExp. le vel: WT (1:2 0) WExp. le vel: WT (1:2 0) F28Exp. le vel: WT (1:5 0)Exp . l evel : >WT (1 :1) […]
Exp. le vel: WT (1:5 0)Exp. le vel: WT (1:5 0) C 3 2 77 .4 8AExp . l eve l: WT (1 :5)Exp . l evel : >WT (1 :1)Exp . l evel : >WT (1 :1) […]
Suppl eme nt ary Figure 1 | Mutational analysis of GPR103. […]
mutants. Data are presented as mean values ± SEM, normally n=3-5; dots), each performed in triplicate. b-d Cell-surface expression (b) and QRFP26-in-duced activation of GPR103 (c, d) were analyzed by the flow cytometry and the TGFα shedding assay, respectively. From the concentration–response curves (a), Emax (c) and ΔpEC50 (d) values relative to the wild type were calculated. Colors in the mutant bars indicate an expression level matching to that of titrated wild type. Statistical analyses were performed using the ordinary one-way ANOVA followed by Dunnett tests with the expression-matched […]

Emax (Exp. #1): 92.74 % WT
Emax (Exp. #2): 87.58 % WT
Emax (Exp. #3): 97.49 % WT
Emax (mean, read-out: Emax): 92.6%
EC50 (n = 3): 135 nM
Emax (n = 3, read-out: Emax): 96.2 ± 2.3%
Substance: TSGPLGNLAEELNGYSRKKGGFSFRF-NH2 [QRFP26]
